Measured values reported in patent US6479670B1, “Selective retinoid acid receptor agonists” (Hoffmann-La Roche Inc., priority 1999, dated 2002).

System: rat model of elastase-induced emphysema
Assay: Repair of alveoli in elastase-induced emphysema (rat model), morphometric analysis
Format: in vivo, male Sprague Dawley rats
Details: elastase-induced emphysema in rats
Protocol: RAR selective agonists were evaluated for its effects on alveolar repair in the rat model of elastase-induced emphysema in rats (Massaro et al. Nature (Medicine, 1997, 3, 675)). Animals were divided into treatment groups of approximately eight. Lung inflammation and alveolar damage was induced in male Sprague Dawley rats by a single instillation of pancreatic elastase(porcine derived, Calbiochem) 2 U/gram body mass. Three weeks post injury all-trans retinoic acid or RAR agonist was dissolved in dimethylsulfoxide (20 mg/ml) and stored at −20 C. Fresh working stocks were prepared fresh daily by dilution in PBS to a final concentration of 2 mg/ml. Animals treated with all-trans retinoic acid (0.5 mg/Kg ip) were dosed once daily by intraperitoneal injection, starting 21 days post injury. Control groups were challenged with elastase and 21 days later treated with Vehicle (DMSO/PBS) for 14 days. Animals were sacrificed 24 hours after the last dose of by exsanguination under deep anesthesia.
The lungs were inflated with 10% neutral buffered formalin by intratracheal instillation at a constant rate (1 ml/gram body mass/min). The lung was excised and immersed in fixative for 24 hours prior to processing. Standard methods were used to prepare 5 um paraffin sections. Sections were stained with Hematoxylin and Eosin (H%E). Computerized Morphometric analysis was performed to determine the average alveolar size and alveolar number (Table 1).

For COCC1(C)CCCOc2cc(C#Cc3ccc(C(=O)O)cc3)ccc21 (racemic) [A, 4-(5-methoxymethyl-5-methyl-2,3,4,5-tetrahydro-1-benzo[b]oxepin-8-yl-ethynyl)-benzoic acid], the “% repair area” value (0.1 mg/kg p.o.) was 45.2%, the “% repair area” value (0.3 mg/kg p.o.) was 51.3% and the “% repair area” value (0.5 mg/kg i.p.) was 58%.
